Where two headings read alike, the source gives them in different places. No end group written: not given here.
Legend:
[1] = tested on: EPS8 overexpression tumor cell line MCF-7 (human breast cancer cell line)
Protocol: EPS8 overexpression tumor cell line MCF-7 (human breast cancer cell line, purchased from ATCC) were selected as target cells, and seeded in 96-well plates at 10,000 cells/well and 100 μL/well. The medium culture was Dulbecco's Modified Eagle's Medium (DMEM) containing 10% FBS. 8 hours later, short peptide P01 was added at different final concentration of 0, 100, 300 and 500 μg/mL. MCF-7 cells were incubated with short peptide P01 for 24 hours, 48 hours and 72 hours. Then OD values at wavelength of 490 nm were detected by MTS assay, and MCF-7 cell viability was calculated.
MCF-7 cell viability=[(ODexperimental-ODblank control)]/[(ODnegative control-ODblank control)]×100%.

[2] = tested on: EPS8 overexpression tumor cell line KG1α (human acute myeloid leukemia cell line)
Protocol: EPS8 overexpression tumor cell line KG1α (human acute myeloid leukemia cell line, purchased from the American Type Culture Collection, ATCC) were selected as target cells, and seeded in 96-well plates at 10,000 cells/well and 100 μL/well. The medium culture was Roswell Park Memorial Institute (RPMI)-1640 containing 10% fetal bovine serum (FBS). […] Then OD values at the wavelength of 490 nm were detected by MTS assay, and KG1α cell viability was calculated.
KG1α cell viability=[(ODexperimental-ODblank control)]/[(ODnegative control-ODblank control)]×100%.

In the case of “RKKNKPPPPKK-NH2 [P01, N′-Arg-Lys-Lys-Asn-Lys-Pro-Pro-Pro-Pro-Lys-Lys-NH2-C′]”, the “IC50 (MCF-7 cell viability)” value ([1]; 24 h) is reported as 594.2 µg/mL, the “IC50 (MCF-7 cell viability)” value ([1]; 48 h) is reported as 374.9 µg/mL and the “IC50 (MCF-7 cell viability)” value ([1]; 72 h) is reported as 304.7 µg/mL. The “IC50 (KG1α cell viability)” value ([2]; 24 h) was 888.5 µg/mL, the “IC50 (KG1α cell viability)” value ([2]; 48 h) was 413.9 µg/mL and the “IC50 (KG1α cell viability)” value ([2]; 72 h) was 335.6 µg/mL.

— US9828412B2, “Short peptide targeting EPS8 binding with EGFR and use thereof” (SOUTHERN MEDICAL UNIVERSITY, priority 2014, dated 2017)
